Laboratory results as given in patent US8148391B2 (Cephalon, Inc., priority 2006, dated 2012).
Read-outs that look alike come from different tables or passages of the source. Each block holds one compound with its values, some of them ahead of it.

What was measured:
[1] = biological target: T1, baculovirus-expressed ALK (Homo sapiens, UniProt Q9UM73); assay: ALK Kinase Assay (ELISA-type, time-resolved fluorescence); assay type: biochemical
T1 construct: host or cells: baculovirus expression system
T1 sequence (Q9UM73 19-1620): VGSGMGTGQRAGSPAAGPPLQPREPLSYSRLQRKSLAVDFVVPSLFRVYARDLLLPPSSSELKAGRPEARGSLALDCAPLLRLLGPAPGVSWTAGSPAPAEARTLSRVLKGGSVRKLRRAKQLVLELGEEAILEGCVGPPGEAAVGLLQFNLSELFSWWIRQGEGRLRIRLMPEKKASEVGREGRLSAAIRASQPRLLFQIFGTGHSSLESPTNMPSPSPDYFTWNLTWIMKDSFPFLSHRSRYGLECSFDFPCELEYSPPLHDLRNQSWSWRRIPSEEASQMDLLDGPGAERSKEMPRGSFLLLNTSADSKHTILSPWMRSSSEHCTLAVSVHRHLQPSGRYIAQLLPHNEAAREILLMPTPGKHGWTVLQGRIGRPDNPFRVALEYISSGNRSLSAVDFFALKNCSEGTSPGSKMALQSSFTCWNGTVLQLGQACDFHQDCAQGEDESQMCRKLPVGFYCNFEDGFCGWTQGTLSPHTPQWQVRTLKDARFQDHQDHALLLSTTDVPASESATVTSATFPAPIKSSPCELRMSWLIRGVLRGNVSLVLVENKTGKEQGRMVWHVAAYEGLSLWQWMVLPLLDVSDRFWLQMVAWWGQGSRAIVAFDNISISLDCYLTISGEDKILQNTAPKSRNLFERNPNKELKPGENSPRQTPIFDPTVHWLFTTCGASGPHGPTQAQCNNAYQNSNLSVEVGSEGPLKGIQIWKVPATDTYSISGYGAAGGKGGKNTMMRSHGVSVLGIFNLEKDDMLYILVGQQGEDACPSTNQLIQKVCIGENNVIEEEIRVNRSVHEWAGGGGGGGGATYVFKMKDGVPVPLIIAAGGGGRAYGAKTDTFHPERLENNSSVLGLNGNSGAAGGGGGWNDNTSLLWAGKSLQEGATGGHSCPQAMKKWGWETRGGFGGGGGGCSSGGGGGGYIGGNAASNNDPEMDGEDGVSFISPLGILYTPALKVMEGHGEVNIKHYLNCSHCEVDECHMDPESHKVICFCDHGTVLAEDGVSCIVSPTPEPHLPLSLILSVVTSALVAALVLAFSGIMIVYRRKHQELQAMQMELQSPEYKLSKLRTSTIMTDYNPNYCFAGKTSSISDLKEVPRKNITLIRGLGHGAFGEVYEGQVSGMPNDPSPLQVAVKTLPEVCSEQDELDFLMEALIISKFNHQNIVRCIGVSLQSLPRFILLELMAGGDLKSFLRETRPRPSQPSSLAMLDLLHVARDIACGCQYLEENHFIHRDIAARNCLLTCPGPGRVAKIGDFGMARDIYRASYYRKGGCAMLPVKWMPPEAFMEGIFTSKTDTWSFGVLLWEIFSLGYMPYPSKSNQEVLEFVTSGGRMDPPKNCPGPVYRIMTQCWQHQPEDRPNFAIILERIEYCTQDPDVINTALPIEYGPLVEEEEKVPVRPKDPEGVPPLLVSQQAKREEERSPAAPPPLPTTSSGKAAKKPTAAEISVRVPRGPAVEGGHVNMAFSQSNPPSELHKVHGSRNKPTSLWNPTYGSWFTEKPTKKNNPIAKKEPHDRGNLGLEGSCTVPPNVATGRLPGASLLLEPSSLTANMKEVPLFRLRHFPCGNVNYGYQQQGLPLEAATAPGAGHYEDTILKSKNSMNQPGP
Outline: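 Substrate coating: phospholipase C-γ, 10 μg/mL in TBS. Kinase step: 30 ng/ml ALK, 15 min, 37° C. Detection and analysis: Eu-N1 PT66 antibody, with IC50 fitted as a sigmoidal variable-slope dose-response curve.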

[2] = biological target: T2, c-Met (cytoplasmic domain) (Homo sapiens, UniProt P08581); assay: c-Met Kinase Assay (same methods as for ALK, with modifications); assay type: biochemical
T2 construct: 10 ng/mL c-Met (cytoplasmic domain, Invitrogen Corporation #PV3143); purchased Invitrogen Corporation PV3143
T2 sequence (P08581 956-1390 limits assumed): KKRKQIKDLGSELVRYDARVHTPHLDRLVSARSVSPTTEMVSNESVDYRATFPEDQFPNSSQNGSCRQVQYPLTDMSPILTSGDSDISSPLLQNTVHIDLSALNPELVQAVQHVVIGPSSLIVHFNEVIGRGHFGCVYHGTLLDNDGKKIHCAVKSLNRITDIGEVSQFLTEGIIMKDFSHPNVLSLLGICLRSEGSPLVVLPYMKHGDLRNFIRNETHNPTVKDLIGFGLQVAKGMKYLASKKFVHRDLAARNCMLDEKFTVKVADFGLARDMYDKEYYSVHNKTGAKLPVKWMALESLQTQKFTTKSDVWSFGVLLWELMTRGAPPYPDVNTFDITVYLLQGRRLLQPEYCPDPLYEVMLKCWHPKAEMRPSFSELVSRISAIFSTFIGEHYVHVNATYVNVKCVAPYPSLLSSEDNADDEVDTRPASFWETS
Outline: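 Wells were coated with 10 μg/mL phospholipase C-γ substrate in TBS, and reactions were started with 10 ng/mL c-Met cytoplasmic domain and run at 37° C for 15 minutes. Phosphorylated product was detected with Eu-N1-labeled PT66 antibody. IC50 values came from sigmoidal variable-slope fits of percent inhibition versus log compound concentration.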

[3] = 1 μM ATP (Km level), 30 ng/ml ALK, 37° C., 15 minutes, read-out: ALK Activity (ALK kinase inhibition, IC50 class)
[4] = 1 μM ATP (Km level), 10 ng/mL c-Met, read-out: cMet Activity (c-Met kinase inhibition, IC50 class)
[5] = ALK kinase inhibition, 1 μM ATP, read-out: ALK Activity
[6] = c-Met kinase inhibition, 1 μM ATP, read-out: cMet Activity
[7] = ALK kinase inhibition, 1 μM ATP (Km level), read-out: ALK Activity
[8] = c-Met kinase inhibition, 1 μM ATP (Km level), read-out: cMet Activity
[9] = 1 μM ATP (Km level), read-out: ALK Activity (ALK Kinase Inhibition, IC50)
[10] = 1 μM ATP (Km level), read-out: cMet Activity (c-Met Kinase Inhibition, IC50)

Structure (SMILES): CCN1CCN(CC)c2cc(Nc3ncc(Cl)c(N[C@@H]4CCCC[C@H]4NS(C)(=O)=O)n3)ccc2C1=O [Example 424, N-{(1R,2R)-2-[5-Chloro-2-(1,4-diethyl-5-oxo-2,3,4,5-tetrahydro-1H-benzo[e][1,4]diazepin-8-ylamino)-pyrimidin-4-ylamino]-cyclohexyl}-methanesulfonamide]
IC50 [1, 7]: < 100 nM | IC50 [2, 8]: 1000 to 10000 nM

Structure (SMILES): CCN1C2CCC1c1cc(Nc3ncc(Cl)c(N[C@@H]4CCCC[C@H]4NS(C)(=O)=O)n3)ccc1C2 (stereo partly drawn) [Example 71, N-{(1R,2R)-2-[5-Chloro-2-(12-ethyl-12-aza-tricyclo[7.2.1.0*2,7*]dodeca-2(7),3,5-trien-4-ylamino)-pyrimidin-4-ylamino]-cyclohexyl}-methanesulfonamide]
IC50 [1, 7]: < 100 nM | IC50 [2, 8]: 100 to 1000 nM

Structure (SMILES): CNC(=O)c1ccccc1Nc1nc(Nc2cccc3c2CN(C(C)=O)CCN3)ncc1Cl [Example 236, 2-[2-(4-Acetyl-2,3,4,5-tetrahydro-1H-benzo[e][1,4]diazepin-6-ylamino)-5-chloro-pyrimidin-4-ylamino]-N-methyl-benzamide]
IC50 [1, 7]: 100 to 1000 nM | IC50 [2, 8]: 1000 to 10000 nM

Structure (SMILES): COc1c(Nc2ncc(Cl)c(N[C@H]3[C@@H](C(N)=O)[C@@H]4C=C[C@H]3C4)n2)ccc2c1CCCC(N1CCOCC1)C2 (single isomer, unassigned) [Example 940]
IC50 [1, 9]: < 100 nM | IC50 ([2]; cMet Activity (c-Met Kinase Inhibition, IC50), 1 μM ATP (Km level)): > 10000 nM

Structure (SMILES): COCCN1CCc2ccc(Nc3ncc(Cl)c(Nc4ccccc4-c4cccc(C)n4)n3)cc2CC1 [Example 1009, 5-Chloro-N*2*-[3-(2-methoxy-ethyl)-2,3,4,5-tetrahydro-1H-benzo[d]azepin-7-yl]-N*4*-[2-(6-methyl-pyridin-2-yl)-phenyl]-pyrimidine-2,4-diamine]
IC50 [1, 9]: < 100 nM | IC50 [2, 10]: 100 to 1000 nM

Structure (SMILES): COc1cc2c(cc1Nc1ncc(Cl)c(Nc3ccc(N4CCN(C)CC4)cc3OC)n1)CCN(CC(=O)N(C)C)CC2 [Example 770, 2-(7-{5-Chloro-4-[2-methoxy-4-(4-methyl-piperazin-1-yl)-phenylamino]-pyrimidin-2-ylamino}-8-methoxy-1,2,4,5-tetrahydro-benzo[d]azepin-3-yl)-N,N-dimethyl-acetamide]
IC50 [1, 9]: < 100 nM | IC50 [2, 10]: > 10000 nM

Structure (SMILES): CN1CCCCc2cc(Nc3ncc(Cl)c(Nc4ccccc4NS(C)(=O)=O)n3)ccc21 [Example 106, N-{2-[5-Chloro-2-(1-methyl-2,3,4,5-tetrahydro-1H-benzo[b]azepin-7-ylamino)-pyrimidin-4-ylamino]-phenyl}-methanesulfonamide]
IC50 [1, 7]: < 100 nM | IC50 [2, 8]: 100 to 1000 nM

Structure (SMILES): COc1ccccc1Nc1nc(Nc2ccc3c(c2)CCC(NCC(F)(F)F)CC3)ncc1Cl (stereo not drawn) [Example 658, 5-Chloro-N*4*-(2-methoxy-phenyl)-N*2*-[7-(2,2,2-trifluoro-ethylamino)-6,7,8,9-tetrahydro-5H-benzocyclohepten-2-yl]-pyrimidine-2,4-diamine]
IC50 [1, 9]: 100 to 1000 nM | IC50 [2, 10]: > 10000 nM

Structure (SMILES): COc1cc2c(cc1Nc1ncc(Cl)c(Nc3ccccc3S(=O)(=O)N3CC[C@H](C)C3)n1)CCN(CCO)CC2 [Example 855, 2-(7-{5-Chloro-4-[2-((S)-3-methyl-pyrrolidine-1-sulfonyl)-phenylamino]-pyrimidin-2-ylamino}-8-methoxy-1,2,4,5-tetrahydro-benzo[d]azepin-3-yl)-ethanol]
IC50 [1, 9]: < 100 nM | IC50 [2, 10]: 100 to 1000 nM

Structure (SMILES): CCN1CCN(CC)c2cc(Nc3nc(Nc4cc5c(cc4OC)CCN(CC(=O)N(C)C)CC5)ncc3Cl)ccc2C1=O [Example 724, 2-{7-[5-Chloro-4-(1,4-diethyl-5-oxo-2,3,4,5-tetrahydro-1H-benzo[e][1,4]diazepin-8-ylamino)-pyrimidin-2-ylamino]-8-methoxy-1,2,3,4-tetrahydro-benzo[d]azepin-3-yl}-N,N-dimethyl-acetamide]
IC50 [1, 9]: < 100 nM | IC50 [2, 10]: > 10000 nM

Structure (SMILES): CNC(=O)c1ccccc1Nc1nc(Nc2ccc3c(c2)CCCC(=O)N3)ncc1Cl [Example 2, 2-[5-Chloro-2-(2-oxo-2,3,4,5-tetrahydro-1H-benzo[b]azepin-7-ylamino)-pyrimidin-4-ylamino]-N-methyl-benzamide]
IC50 [1, 7]: < 100 nM | IC50 [2, 8]: < 100 nM

Now from value to compound:

IC50 [1, 3]: < 100 nM | IC50 [2, 4]: > 10000 nM
Structure (SMILES): CNC(=O)c1ccc(Nc2nc(Nc3cc4c(cc3OC)CCN(C(COC)COC)CC4)ncc2Cl)c(OC)c1 [Example 1177, 4-{5-Chloro-2-[8-methoxy-3-(2-methoxy-1-methoxymethyl-ethyl)-2,3,4,5-tetrahydro-1H-benzo[d]azepin-7-ylamino]-pyrimidin-4-ylamino}-3-methoxy-N-methyl-benzamide]

IC50 [1, 5]: < 100 nM | IC50 [2, 6]: 100 to 1000 nM
Structure (SMILES): CNC(=O)c1cccc(F)c1Nc1nc(Nc2ccc3c(c2)N(CCN2CCCC2)CCCC3(C)C)ncc1Cl [Example 1605, 2-{5-Chloro-2-[5,5-dimethyl-1-(2-pyrrolidin-1-yl-ethyl)-2,3,4,5-tetrahydro-1H-benzo[b]azepin-8-ylamino]-pyrimidin-4-ylamino}-3-fluoro-N-methyl-benzamide]

IC50 [1, 3]: 100 to 1000 nM | IC50 [2, 4]: 1000 to 10000 nM
Structure (SMILES): CCOC(=O)N1CCCOc2ccc(Nc3ncc(Cl)c(Nc4ccsc4C(=O)NC)n3)cc21 [Example 1411, 2-[5-Chloro-4-(2-methylcarbamoyl-thiophen-3-ylamino)-pyrimidin-2-ylamino]-7,8-dihydro-6H-5-oxa-9-aza-benzocycloheptene-9-carboxylic acid ethyl ester]

IC50 [1, 3]: 100 to 1000 nM | IC50 [2, 4]: 100 to 1000 nM
Structure (SMILES): CC(=O)N1CCC(=O)NCc2cc(Nc3ncc(Cl)c(Nc4ccccc4CCC#N)n3)ccc21 [Example 1233, 3-{2-[2-(1-Acetyl-4-oxo-1,2,3,4,5,6-hexahydro-benzo[b][1,5]diazocin-8-ylamino)-5-chloro-pyrimidin-4-ylamino]-phenyl}-propionitrile]

IC50 [1, 5]: > 10000 nM | IC50 [2, 6]: 100 to 1000 nM
Structure (SMILES): CNC(=O)c1cccc(C(F)(F)F)c1Nc1nc(Nc2ccc3c(c2)CCOC(=O)N3C)ncc1Cl [Example 1753, 2-[5-Chloro-2-(5-methyl-6-oxo-5,6,8,9-tetrahydro-7-oxa-5-aza-benzocyclohepten-2-ylamino)-pyrimidin-4-ylamino]-N-methyl-3-trifluoromethyl-benzamide]

IC50 [1, 5]: 100 to 1000 nM | IC50 [2, 6]: < 100 nM
Structure (SMILES): C#CCNC(=O)c1cccc(F)c1Nc1nc(Nc2ccc3c(c2)N(CC)C(=O)C(NC(=O)CN(C)C)CC3)ncc1Cl (stereo not drawn) [Example 1497, 2-{5-Chloro-2-[3-(2-dimethylamino-acetylamino)-1-ethyl-2-oxo-2,3,4,5-tetrahydro-1H-benzo[b]azepin-8-ylamino]-pyrimidin-4-ylamino}-3-fluoro-N-prop-2-ynyl-benzamide]

IC50 [1, 5]: < 100 nM | IC50 [2, 6]: 1000 to 10000 nM
Structure (SMILES): COc1cc2c(cc1Nc1ncc(Cl)c(Nc3ccccc3S(=O)(=O)N(C)C)n1)CCN(CCO)CC2 [Example 1530, 2-{5-Chloro-2-[3-(2-hydroxy-ethyl)-8-methoxy-2,3,4,5-tetrahydro-1H-3-benzazepin-7-ylamino]-pyrimidin-4-ylamino}-N,N-dimethyl-benzenesulfonamide]

IC50 [1, 3]: < 100 nM | IC50 [2, 4]: > 10000 nM
Structure (SMILES): COc1cc2c(cc1Nc1ncc(Cl)c(N[C@@H]3CCCC[C@H]3NS(C)(=O)=O)n1)CCC(N1CCOCC1)CC2 (stereo partly drawn) [Example 1051, N-{(1R,2R)-2-[5-Chloro-2-(3-methoxy-7-morpholin-4-yl-6,7,8,9-tetrahydro-5H-benzocyclohepten-2-ylamino)-pyrimidin-4-ylamino]-cyclohexyl}-methanesulfonamide]

IC50 [1, 5]: < 100 nM | IC50 [2, 6]: > 10000 nM
Structure (SMILES): COc1cc(N2CCOCC2)ccc1Nc1nc(Nc2cc(F)cc3c2OCCNC3=O)ncc1Cl [Example 1684, 9-[5-Chloro-4-(2-methoxy-4-morpholin-4-yl-phenylamino)-pyrimidin-2-ylamino]-7-fluoro-3,4-dihydro-2H-benzo[f][1,4]oxazepin-5-one]

IC50 [1, 5]: < 100 nM | IC50 [2, 6]: > 10000 nM
Structure (SMILES): COc1cc2c(cc1Nc1ncc(Cl)c(Nc3ccccc3S(=O)(=O)N3CC[C@@H](O)C3)n1)CCN(C[C@@H](C)O)CC2 [Example 1557, (R)-1-(2-{5-Chloro-2-[3-((R)-2-hydroxy-propyl)-8-methoxy-2,3,4,5-tetrahydro-1H-3-benzazepin-7-ylamino]-pyrimidin-4-ylamino}-benzenesulfonyl)-pyrrolidin-3-ol]

IC50 [1, 5]: < 100 nM | IC50 [2, 6]: > 10000 nM
Structure (SMILES): COCCN1CC(=O)Nc2cc(Nc3ncc(Cl)c(N[C@@H]4CCCC[C@H]4NS(C)(=O)=O)n3)c(OC)cc2C1 [Example 1664, N-(1R,2R)-(2-{5-Chloro-2-[7-methoxy-4-(2-methoxy-ethyl)-2-oxo-2,3,4,5-tetrahydro-1H-benzo[e][1,4]diazepin-8-ylamino]-pyrimidin-4-ylamino}-cyclohexyl)-methanesulfonamide]

IC50 [1, 5]: < 100 nM | IC50 [2, 6]: < 100 nM
Structure (SMILES): CCN1C(=O)CN(C(C)=O)Cc2ccc(Nc3ncc(Cl)c(Nc4c(C)csc4C(=O)NC)n3)cc21 [Example 1852, 3-[2-(4-Acetyl-1-ethyl-2-oxo-2,3,4,5-tetrahydro-1H-benzo[e][1,4]diazepin-8-ylamino)-5-chloro-pyrimidin-4-ylamino]-4-methyl-thiophene-2-carboxylic acid-methylamide]

IC50 [1, 3]: < 100 nM | IC50 [2, 4]: > 10000 nM
Structure (SMILES): COc1cc2c(cc1Nc1ncc(Cl)c(N[C@@H]3CCCC[C@H]3NS(C)(=O)=O)n1)CCC(N1CCN(C)CC1)CC2 (single isomer, unassigned) [Example 1101]
